Test results as given in patent US11518764B2, “Substituted heteroaryls as inhibitors of the BCL6 BTB domain protein-protein interaction” (Ontario Institute for Cancer Research (OICR), priority 2018, dated 2022).
Read-outs that look alike come from different tables or passages of the source.

Assays:
[1] = target: BCL6 BTB domain (Homo sapiens (Human), UniProt P41182); experiment: Surface plasmon resonance (SPR) assay; assay type: binding; conditions: BCL6 BTB domain captured on SA chip, single cycle kinetics
[2] = tested on: BCL6 reporter construct (3xBCL6-TK-Luc) in SuDHL4 cells; experiment: Cell-based luciferase assay
Procedure: Cell-Based Luciferase Assay
A BCL6 reporter construct containing three copies of the consensus BCL6 binding site, the TK promoter, and the firefly luciferase gene was stably expressed in SuDHL4 cells after lentivirus infection and selection with Blasticidin. SuDHL4-3×BCL6-TK-Luc cells were seeded into a Viewplate 384-well assay dish at 15,000 cells/well in 25 ul medium (Alpha-MEM high glucose containing 10% FBS, 25 mM HEPES, […] GlutaMAX, 100 ug/ml Normocin, and […] Gentamycin, Invitrogen). A HP D300 digital dispenser was used to dose cells with DMSO or test compounds across a 10-point range of concentrations (high dose of 10 uM), and cultures were grown in a humidified 5% CO2 incubator at 37° C. After two days, plates were removed from the incubator and equilibrated to room temperature. An equal volume of neolite reporter gene assay reagent was added to each well, and samples were processed according to manufacturer's instructions (Perkin Elmer). Luminescent signal was measured using an Envision plate reader equipped with a US-Luminescence detector.

[3] = tested on: Karpas422 cells; experiment: Tumor cell growth inhibition assay; assay type: cell-based
Procedure: Tumor Cell Growth inhibition Assay
Karpas422 cells were seeded into a 96-well plate at 2,000 cells/well in 150 ul medium (Alpha-MEM containing 10% FBS, […] Normocin, and […] Gentamycin, Invitrogen). A HP D300 digital dispenser was used to dose cells with DMSO or test compounds across a 10-point range of concentrations (high dose of 5 uM), and cultures were grown in a humidified 5% CO2 incubator at 37° C. After six days, plates were removed from incubator and equilibrated to room temperature. An equal volume of ATPlite assay reagent was added to each well, and samples were processed according to manufacturer's instructions (Perkin Elmer). Luminescent signal was measured using an Envision plate reader equipped with a US-Luminescence detector.

[4] = Homo sapiens, SU-DHL-4, 48 h, read-out: Luciferase-Assay EC50, uM), SuDHL4-3xBCL6-TK-Luc cells, two days, high dose 10 uM
[5] = Homo sapiens, KARPAS-422, 144 h, read-out: Tumor Growth Inhibition in Karpas-422 (IC50, uM), Karpas422 cells, six days, ATPlite
[6] = read-out: Tumor Growth Inhibition in Karpas-422 (IC50), Karpas422 cells, six days, ATPlite

Compound	Kd [1] [nM]	EC50 [2, 4] [µM]	IC50 [3, 5] [µM]	also measured
Cc1cc(-c2cn(CC(=O)Nc3cc(N4CCOCC4)ncc3Cl)c3ncn(C)c(=O)c23)cc(C(N)=O)c1O [Compound I-4, 5-(7-(2-((5-chloro-2-morpholinopyridin-4-yl)amino)-2-oxoethyl)-3-methyl-4-oxo-4,7-dihydro-3H-pyrrolo[2,3-d]pyrimidin-5-yl)-2-hydroxy-3-methylbenzamide]	279	1.8	0.525	
C[C@@H]1CN(c2cc(NC(=O)Cn3cc(-c4cc(Cl)c(O)c(C(N)=O)c4)c4c(=O)n(C)cnc43)c(Cl)cn2)C[C@H](C)O1 [Compound I-13]	22	0.17	0.18	
C[C@H]1COCCN1c1cc(NC(=O)Cn2cc(-c3cc(Cl)c(O)c(C(N)=O)c3)c3c(=O)n(C)cnc32)c(Cl)cn1 [Compound I-35]				IC50 [3, 6]: 0.133 µM
Cn1cnc2c(c(-c3cc(Cl)c(O)c(C(N)=O)c3)cn2CC(=O)Nc2cc(N3CCC(F)C3)ncc2Cl)c1=O (centres unmarked) [Compound I-67]	14	0.296	0.267	
Cn1cnc2c(c(-c3cc(Cl)c(O)c(C(N)=O)c3)cn2CC(=O)Nc2cc(N3CCOC(C(F)(F)F)C3)ncc2Cl)c1=O (centres unmarked) [Compound I-69]	72			EC50 ([2]; read-out: Luciferase-Assay EC50, SuDHL4-3xBCL6-TK-Luc cells, two days, high dose 10 uM): 0.269 µM; IC50 [3, 6]: 0.22 µM
C[C@@H]1CN(CCN(C)c2cc(NC(=O)Cn3cc(-c4cc(Cl)c(O)c(C(N)=O)c4)c4c(=O)n(C)cnc43)c(Cl)cn2)C[C@H](C)O1 [Compound I-73]	19	0.233	0.165	
Cn1cnc2c(c(-c3cc(Cl)c(O)c(C(N)=O)c3)cn2CC(=O)Nc2cc(N3C[C@H]4CCO[C@H]4C3)ncc2Cl)c1=O [Compound I-74]	2	2.3	0.123	
Cn1cnc2c(c(-c3cc(Cl)c(O)c(C(N)=O)c3)cn2CC(=O)Nc2cc(N3CCN4CCOCC4C3)ncc2Cl)c1=O (centres unmarked) [Compound I-75]	8	0.132	0.099	
Cn1cnc2c(c(-c3cc(Cl)c(O)c(C(N)=O)c3)cn2CC(=O)Nc2cc(N3CCC4(CCOC4)C3)ncc2Cl)c1=O (centres unmarked) [Compound I-76]	12	0.155	0.112	
Cn1cnc2c(c(-c3cc(C(N)=O)c(O)cn3)cn2CC(=O)Nc2cc(N3CCOCC3)ncc2Cl)c1=O [Compound I-143, 2-(7-(2-((5-chloro-2-morpholinopyridin-4-yl)amino)-2-oxoethyl)-3-methyl-4-oxo-4,7-dihydro-3H-pyrrolo[2,3-d]pyrimidin-5-yl)-5-hydroxyisonicotinamide]	250	6.2		
CCOc1cc(-c2cn(CC(=O)Nc3cc(N4CCOC[C@@H]4C)ncc3Cl)c3ncn(C)c(=O)c23)cc(C(N)=O)c1O [Compound I-144]		10	10	
Cn1cnc2c(c(-c3cc(Cl)c(O)c(C(N)=O)c3)cn2CC(=O)Nc2cc(N3CCn4cc(C(F)(F)F)nc4C3)ncc2Cl)c1=O [Compound I-165]	14.9	0.466		
CN1CCN(c2ccc(Cl)c(NC(=O)Cn3cc(-c4cc(Cl)c(O)c(C(N)=O)c4)c4c(=O)n(C)cnc43)n2)CC1 [Compound I-175]	429		4.79	
C[C@H]1CN(C)CCN1c1cc(NC(=O)Cn2cc(-c3cc(F)c(O)c(C(N)=O)c3)c3c(=O)n(C)c(C(F)(F)F)nc32)c(Cl)cn1 [Compound I-233]	23.7	0.161		
C[C@H]1COCCN1c1cc(NC(=O)Cn2cc(-c3cc(Cl)c(O)c(C(N)=O)c3)c3c(=O)n(C)cnc32)c(Cl)cn1 [Compound I-239]				IC50 [3, 6]: 0.316 µM
C[C@H]1CN(CC(F)(F)F)CCN1c1cc(NC(=O)Cn2cc(-c3cc(Cl)c(O)c(C(N)=O)c3)c3c(=O)n(C)c(C(F)(F)F)nc32)c(Cl)cn1 [Compound I-253]	2100			
Cn1cnc2c(c(-c3cc(Cl)c(O)c(C(N)=O)c3)cn2CC(=O)N[C@@H]2CCCC[C@H]2OC(=O)C(F)(F)F)c1=O [Compound I-254, (1R,2R)-2-(2-(5-(3-carbamoyl-5-chloro-4-hydroxyphenyl)-3-methyl-4-oxo-3,4-dihydro-7H-pyrrolo[2,3-d]pyrimidin-7-yl)acetamido)cyclohexyl 2,2,2-trifluoroacetate]	3880			

Compound	Kd [1] [nM]	EC50 [2, 4] [µM]	IC50 [3, 5] [µM]	also measured
Cn1cnc2c(c(-c3cc(Cl)c(O)c(C(N)=O)c3)cn2CC(=O)NC2CCCc3ccncc32)c1=O (centres unmarked) [Compound I-255]	6110			
Cn1cnc2c(c(-c3cc(Cl)c(O)c(C(N)=O)c3)cn2CC(=O)NC2CCCc3ncccc32)c1=O (centres unmarked) [Compound I-257]	3640			
C[C@H]1COCCN1c1cc(NC(=O)Cn2cc(-c3cc(Cl)c(O)c(C(N)=O)c3)c3c(=O)n(C)c(N(C)C)nc32)c(Cl)cn1 [Compound I-263, (S)-3-chloro-5-(7-(2-((5-chloro-2-(3-methylmorpholino)pyridin-4-yl)amino)-2-oxoethyl)-2-(dimethylamino)-3-methyl-4-oxo-4,7-dihydro-3H-pyrrolo[2,3-d]pyrimidin-5-yl)-2-hydroxybenzamide]		2.07	0.745	
COc1c(O)c(C(N)=O)cc(-c2cn(CC(=O)Nc3cc(N4CCN(C)C[C@@H]4C)ncc3Cl)c3nc(C(F)(F)F)n(C)c(=O)c23)c1F [Compound I-266]		1.61	2.78	
CNc1nc2c(c(-c3cc(Cl)c(O)c(C(N)=O)c3)cn2CC(=O)Nc2cc(N3CCOC[C@@H]3C)ncc2Cl)c(=O)n1C [Compound I-268, (S)-3-chloro-5-(7-(2-((5-chloro-2-(3-methylmorpholino)pyridin-4-yl)amino)-2-oxoethyl)-3-methyl-2-(methylamino)-4-oxo-4,7-dihydro-3H-pyrrolo[2,3-d]pyrimidin-5-yl)-2-hydroxybenzamide]		1.8	1.86	
CN(C)c1cc(NC(=O)Cn2cc(-c3cc(Cl)c(O)c(C(N)=O)c3)c3c(=O)n(C)c(Nc4cc(N(C)C)ncc4Cl)nc32)c(Cl)cn1 [Compound I-291, 3-chloro-5-(2-((5-chloro-2-(dimethylamino)pyridin-4-yl)amino)-7-(2-((5-chloro-2-(dimethylamino)pyridin-4-yl)amino)-2-oxoethyl)-3-methyl-4-oxo-4,7-dihydro-3H-pyrrolo[2,3-d]pyrimidin-5-yl)-2-hydroxybenzamide]		1.76	0.908	
C[C@H]1CN(CC2CC2)CCN1c1cc(NC(=O)Cn2cc(-c3cc(C(N)=O)c(O)c(F)c3F)c3c(=O)n(C)cnc32)c(Cl)cn1 [Compound I-307]		0.464	0.676	
Cc1nc2c(c(-c3cc(Cl)c(O)c(C(N)=O)c3)cn2CC(=O)Nc2cc(N3CCN(C4COC4)C[C@@H]3C)ncc2Cl)c(=O)n1C [Compound I-336]		0.0383	0.0502	
Cc1nc2c(c(-c3cc(Cl)c(O)c(C(N)=O)c3)cn2CC(=O)Nc2ccncc2Br)c(=O)n1C [Compound I-337]		1.55	1.93	
Cc1nc2c(c(-c3cc(Cl)c(O)c(C(N)=O)c3)cn2CC(=O)Nc2cc(N3CCN(CC4CC4)C[C@@H]3C)ncc2Cl)c(=O)n1C [Compound I-338]		0.163	0.231	
Cc1nc2c(c(-c3cc(C(N)=O)c(O)c(F)c3F)cn2CC(=O)Nc2cc(N3CCN(CC4CC4)C[C@@H]3C)ncc2Cl)c(=O)n1C [Compound I-339]		0.454	0.237	
[2H]C1(C([2H])([2H])N2CCN(c3cc(NC(=O)Cn4cc(-c5cc(C(N)=O)c(O)c(F)c5F)c5c(=O)n(C)cnc54)c(Cl)cn3)[C@@H](C)C2)CC1 [Compound I-370]		0.61	1.31	
CN1CC2CC(C1)N2c1cc(NC(=O)Cn2cc(-c3cc(F)c(O)c(C(N)=O)c3)c3c(=O)n(C)cnc32)c(Cl)cn1 [Compound I-450]	43.6			
CN1CC2CC(C1)N2c1cc(NC(=O)Cn2cc(-c3cc(C(N)=O)c(O)c(F)c3F)c3c(=O)n(C)cnc32)c(Cl)cn1 [Compound I-451]	157			
CN1CCC2(C1)CN(c1cc(NC(=O)Cn3cc(-c4cc(C(N)=O)c(O)c(F)c4F)c4c(=O)n(C)cnc43)c(Cl)cn1)C2 [Compound I-485]	805			
(S)-3-chloro-5-(7-(2-((5-chloro-2-(3-methylmorpholino)pyridin-4-yl)amino)-2-oxoethyl)-3-methyl-4-oxo-2-phenyl-4,7-dihydro-3H-pyrrolo[2,3-d]pyrimidin-5-yl)-2-hydroxybenzamide [Compound I-247]				EC50 ([2]; SuDHL4-3xBCL6-TK-Luc cells, two days, high dose 10 uM, read-out: Luciferase-Assay EC50): 15.2 µM; IC50 ([3]; Karpas422 cells, six days, ATPlite, read-out: Tumor Growth Inhibition in Karpas-422 (IC50)): 0.628 µM
